The source of these data is the supplement of paper PMC10307832.

Experiment in all cases: relative viability (nuclei count vs DMSO), 5 days (fraction); higher = more cells survive
Compound in the assay “Shikonin + Foretinib”: CC(C)=CC[C@@H](O)C1=CC(=O)c2c(O)ccc(O)c2C1=O [Shikonin] + COc1cc2c(Oc3ccc(NC(=O)C4(C(=O)Nc5ccc(F)cc5)CC4)cc3F)ccnc2cc1OCCCN1CCOCC1 [Foretinib] (partner 0.25 µM)
The method in brief: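 The day after seeding in 1536-well plates, lung cancer cell lines were treated by pin tool with a single drug, or with a fixed anchor-drug dose together with five library-drug doses (not always all listed) in √10 steps. After 5 days, a combined fix-and-stain solution (final 0.05% Triton X-100, 1% formaldehyde, 1 ug/ml Hoechst) was added. Nuclei counted on 4× images gave relative viability as treated counts over vehicle counts, reported as the median of duplicate plates.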

Compound in another assay: CC(C)=CC[C@@H](O)C1=CC(=O)c2c(O)ccc(O)c2C1=O [Shikonin]
The essentials: (§1)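 After an overnight hold at 37 °C, lung cancer cell lines in 1536-well plates were pinned with five library-drug doses (not always all listed), each √10 from the next, on vehicle-anchored plates. The cells stayed 5 days without fresh medium, then a one-step fix, permeabilisation and Hoechst stain preceded 4× imaging and MetaXpress nuclear counts. A plate passed only with control CV under 25% and at least one doubling. Viability is the median, over plates, of treated-well nuclei relative to vehicle-well nuclei.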

Compound in assay [1]: CC(C)N(CCCNC(=O)Nc1ccc(C(C)(C)C)cc1)C[C@H]1O[C@@H](n2ccc3c(N)ncnc32)[C@H](O)[C@@H]1O
The essentials:
as §1

On to UMC-11, for which the relative viability in the assay with Shikonin + Foretinib (first compound 0.01 µM) is 1.02; with Shikonin + Foretinib (first compound 0.1 µM), 1.13; in the assay with Shikonin + Foretinib (first compound 0.3162 µM), 1.13; with Shikonin + Foretinib (first compound 1 µM), 1.07; with Shikonin (0.01 µM), 0.943; in the assay with Shikonin (0.1 µM) it was 0.993. Besides, the relative viability is 1.07 with Shikonin (0.3162 µM); 1.08 with Shikonin (1 µM); 0.953 in assay [1] (0.08 µM); 0.875 in assay [1] (0.253 µM); 0.82 in assay [1] (0.8 µM); 0.999 in assay [1] (2.53 µM). In addition, the relative viability in assay [1] (8 µM) came out at 1.01.
